Experimental data from patent publication EP0610377B1, “TRI-SUBSTITUTED TETRAHYDROFURAN ANTIFUNGALS” (SCHERING CORPORATION, priority 1991, dated 1993).

Columns and labels:
Format in all cases: in vivo
[1] = system: C. albicans C-43; assay: Candida systemic model in CF1 mice infected IV with C. albicans C-43, oral treatment
Protocol: The compounds of Examples 23-26 and itraconazole, fluconazole, and saperconazole were tested for in vivo oral antifungal activity in a Candida systemic model using CF1 male mice , average weight 20 g, Harlan Sprague Dawley, Inc., Indianapolis, Ind. infected by IV injection into the tail vein of C. albicans C-43 (5 million CFUs). […] Oral efficacy was measured after four (4) days by percent survival and by the number of organisms remaining in the kidneys i.e., the Colony Forming Units (CFUs). The mice were sacrificed and the kidneys of individual mice were homogenized in sterile saline, diluted and spread onto Mycosel agar. Colony counts were determined after 48 hours at 37°C. For calculation of geometric means, mice that died during the experiment were considered to have 10^9 CFUs/kidneys (based on numerous previous experiments).

[2] = system: Aspergillus flavus; assay: Aspergillus flavus pulmonary infection model in compromised mice, oral treatment
Text: The in vivo oral antifungal activity of the compounds of Example 23-26 were compared to those of itraconazole, fluconazole and saperconazole in an Aspergillus pulmonary infection model in mice. The procedure of David Loebenberg et al. entitled "Sch 42427, The Active Enantiomer of Antifungal agent Sch 39304: In Vitro and In Vivo Activity" Antimicrobial Agents and Chemotherapy (1992), 36 498-501 was used. The Aspergillus flavus pulmonary model was run in the following manner Male, CF-1 mice weighing 20 grams were compromised with cortisone acetate (100 mg/kg), administered subcutaneously, once daily for 3 days. In addition, to prevent bacterial disease, tetracycline HCL (300 mg/1) was added to the drinking water and given ad libitum. On day 2 of compromising, mice were infected in an inhalation chamber, first described by Piggot and Emmons in 1960 and modified by us. The chamber is a 1 liter pyrex, thick-walled flask with 8 tubular side-arms that extend into the flask. Each side-arm is a pyrex tube of 14 cm length, constricted to a 1 cm opening inside the flask. The bottom of the flask was covered with a malt extract agar medium on which a sporulating culture of A. flavus ATCC 24133 was grown for 13 days at room temperature. The top of the flask was closed with a #10 stopper through which passed a glass tube attached by rubber tubing to a 60 mL syringe. Mice were placed in each of the side arms and pushed to the bottoms so that their nares extended beyond the open end of the tube and over the agar. Cotton plugs were then inserted behind the mice to hold them in place. By pumping the 60 mL syringe twice, air was forced over the culture and produced a cloud of spores. Mice were exposed to the spore cloud for one minute. Within 15-30 minutes after exposure, a number of mice were sacrificed and lung tissue samples homogenized for culture to determine the number of inhaled conidia. Oral treatment began 24 h post-infection with doses of 5 to 250 mg of drug/kg in ethanol; vehicle (115 ml of Emulphor EL-719P, GAF, Wayne, NJ; and 5 ml of 20% w/v lactic acid per liter of water), 10:90 v/v, once daily for 4 days.
The procedure of Example 31 was used to compare the in vivo oral antifungal activity of (±)-5R/S-(cis)-4-[4-[4-[4-[[5-(2,4-difluorophenyl)-5-(1H-1,2,4-triazol-1-ylmethyl) tetrahydrofuran-3-yl]methoxy-phenyl-1-piperazinyl]phenyl]-2,4-dihydro-2[(R/S)-(1-methylpropyl)]-3H-1,2,4-triazol-3-one with (±)-2R/S-(cis)-1-[4-[[2-(2,4-difluorophenyl)-2-(1H-1,2,4-triazol-1-ylmethyl) tetrahydro-4-furanyl]methoxy]phenyl]-4-(1-methylethyl)piperazine of Example 68 of USP 5,039,676 in an Aspergillus pulmonary infection model described in Example 31. […]
The procedures of Examples 31 and 34 were used.

[3] = system: Aspergillus flavus; assay: as above; details: head prints 50 mg/kg (third dose column, c3), in PEG-200 daily for 4 days; CF-1 mice
[4] = system: Candida; assay: Candida vaginal infection in a hamster model; details: result in words
[5] = system: C. albicans C-65; assay: Candida systemic model in normal and compromised CF1 mice infected with C. albicans C-65, oral treatment; details: normal and compromised mice; result in words (text refers to Tables II and V)
Protocol: The compounds of Examples 23-26 and itraconazole, fluconazole, and saperconazole were tested for in vivo oral antifungal activity in a Candida systemic model using CF1 male mice , average weight 20 g, Harlan Sprague Dawley, Inc., Indianapolis, Ind. infected by IV injection into the tail vein of C. albicans C-43 (5 million CFUs). The drugs were dissolved in polyethylene glycol-200 (PEG-200) and tested by orally administering 50, 25 and 10 mpk of each drug 4 hours post infection and once daily for 3 more days. Oral efficacy was measured after four (4) days by percent survival and by the number of organisms remaining in the kidneys i.e., the Colony Forming Units (CFUs). The mice were sacrificed and the kidneys of individual mice were homogenized in sterile saline, diluted and spread onto Mycosel agar. Colony counts were determined after 48 hours at 37°C. For calculation of geometric means, mice that died during the experiment were considered to have 10^9 CFUs/kidneys (based on numerous previous experiments).
The compounds of Examples 23-24 and itraconazole, fluconazole, were tested for in vivo oral antifungal anctivity in a Candida systemic model using normal and compromised CF1 mice infected with C. albicans C-65 (5 million CFUs). The procedure of Example 33 was followed. The drugs were dissolved in polyethylene glycol-200 ("PEG-200) at room temperature and tested by orally administering 100, 50, 25, 10 and 1 mpk of each drug. Oral efficacy was measured by percent survival and by the number of organisms remaining in the kidneys (CFUs) after four days. […] The pharmaceutical composition of the preferred compound of formula IIb of Eample 24 in hydroxypropyl beta cyclodextrin ("HPβCD") having 7.4 hydroxypropyl groups per HPβCD (obtained from Pharmatec, Inc., Alachua, FL 32615) was prepared by admixing the appropriate amount of the compound IIa with a 40% (w/v) solution of HPβCD (4 g of HPβCD per 10 mL of purified water). Gentle heating was used to form a clear solution. For the 10 mpk dose, 12 mg of Ha was added to 6 mL of a 40% w/v solution of HPβCD. For dilutions, sterile water was added to the solution with mixing. The pharmaceutical composition of itraconazole and the Pharmatec HPβCD described above was prepared as follows. Propylene glycol (10 mL) was admixed with 0.95 mL of concentrated HCI at 40°-45°C with stirring. Itraconazole (2.5 g) was added thereto and stirring was continued until homogeneous. The mixture so formed was cooled to 20° to 30°C and admixed with a solution of 60 g of HPβCD in 40 mL of purified water to form a clear solution. The pH was adjusted to a value of 1.9-2.1 with 10N NaOH and sufficient purified water added (with mixing) to a final volume of 100 mL. For dilutions, sterile water was added to the itraconazole - HPβCD.

Row | SMILES | %SURVIVAL ([1]; 50 MPK PO in PEG-200, 1 a day x 4 days, day 4 post-infection) | CFUs (GM) ([1]; 50 MPK PO in PEG-200, day 4, geometric mean of the logarithms of CFU remaining in the kidneys (dead mice counted as 10^9)) | %SURVIVAL ([2]; 100 mg/kg PO once a day for 4 days, 18 days post infection, compromised CF-1 mice) | %ANIMALS NEG ([2]; 100 mg/kg PO once a day for 4 days, 18 days post infection, negative = <10 colonies) | PERCENT SURVIVAL AFTER 5 DAYS (5D) [3] | activity against a Candida vaginal infection compared with itraconazole and saperconazole [4] | oral activity against Aspergillus flavus pulmonary infections compared with itraconazole, fluconazole and saperconazole ([2]; in vivo mouse model, PO, result in words) | activity against systemic candidiasis compared with itraconazole and saperconazole [5]
1 | CCC(C)n1ncn(-c2ccc(N3CCN(c4ccc(OC[C@H]5CO[C@](Cn6cncn6)(c6ccc(F)cc6F)O5)cc4)CC3)cc2)c1=O (some centres unmarked) [Saperconazole, reference compound] | 20% | 8.20 | 0% | 0% | 50 | – | – | –
2 | CCC(CC)n1ncn(-c2ccc(N3CCN(c4ccc(OC[C@@H]5CO[C@@](Cn6cncn6)(c6ccc(F)cc6F)C5)cc4)CC3)cc2)c1=O [IIc] | – | – | – | – | – | more active | more active orally | more active
